What was measured:
[1] = target: T1, Ephrin type-B receptor 1 (Homo sapiens) (UniProt P54762); test: Inhibition of human Eph-B1 using [gamma-33P]ATP assessed as residual activity at 3 uM after 30 mins by radiometric assay
T1 sequence (whole entry): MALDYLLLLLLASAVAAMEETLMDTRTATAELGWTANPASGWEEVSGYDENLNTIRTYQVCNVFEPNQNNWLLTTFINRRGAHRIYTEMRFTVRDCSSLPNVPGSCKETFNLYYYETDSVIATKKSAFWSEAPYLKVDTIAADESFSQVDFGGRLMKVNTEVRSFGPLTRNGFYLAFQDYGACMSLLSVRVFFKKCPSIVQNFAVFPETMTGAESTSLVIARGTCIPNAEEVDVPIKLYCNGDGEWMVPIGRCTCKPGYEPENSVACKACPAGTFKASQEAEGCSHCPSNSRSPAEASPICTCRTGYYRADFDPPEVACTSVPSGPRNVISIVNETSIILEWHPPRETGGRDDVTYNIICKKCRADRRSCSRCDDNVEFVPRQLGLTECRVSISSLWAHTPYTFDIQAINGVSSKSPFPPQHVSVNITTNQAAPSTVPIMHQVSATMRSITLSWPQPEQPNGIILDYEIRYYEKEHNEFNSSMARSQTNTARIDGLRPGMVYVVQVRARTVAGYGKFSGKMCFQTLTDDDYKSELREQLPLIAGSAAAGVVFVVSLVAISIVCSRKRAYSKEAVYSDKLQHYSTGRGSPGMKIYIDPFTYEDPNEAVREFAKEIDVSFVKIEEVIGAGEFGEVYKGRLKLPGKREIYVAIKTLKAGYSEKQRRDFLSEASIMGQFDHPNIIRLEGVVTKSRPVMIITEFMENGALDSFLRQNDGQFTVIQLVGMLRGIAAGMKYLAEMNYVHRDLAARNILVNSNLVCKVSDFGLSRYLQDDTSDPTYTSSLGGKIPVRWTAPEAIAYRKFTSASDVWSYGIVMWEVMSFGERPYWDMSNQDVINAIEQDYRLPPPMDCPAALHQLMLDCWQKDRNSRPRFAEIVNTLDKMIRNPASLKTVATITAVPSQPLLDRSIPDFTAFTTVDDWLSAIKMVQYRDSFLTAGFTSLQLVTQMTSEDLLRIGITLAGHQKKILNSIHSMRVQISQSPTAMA

[2] = Cytotoxicity against human CXF 1103L cells after 4 days by propidium iodide staining; conditions: 96 h
Ephrin type-B receptor 4 = target: T2, Ephrin type-B receptor 4 (Homo sapiens, UniProt P54760)
T2 sequence (P54760 whole entry): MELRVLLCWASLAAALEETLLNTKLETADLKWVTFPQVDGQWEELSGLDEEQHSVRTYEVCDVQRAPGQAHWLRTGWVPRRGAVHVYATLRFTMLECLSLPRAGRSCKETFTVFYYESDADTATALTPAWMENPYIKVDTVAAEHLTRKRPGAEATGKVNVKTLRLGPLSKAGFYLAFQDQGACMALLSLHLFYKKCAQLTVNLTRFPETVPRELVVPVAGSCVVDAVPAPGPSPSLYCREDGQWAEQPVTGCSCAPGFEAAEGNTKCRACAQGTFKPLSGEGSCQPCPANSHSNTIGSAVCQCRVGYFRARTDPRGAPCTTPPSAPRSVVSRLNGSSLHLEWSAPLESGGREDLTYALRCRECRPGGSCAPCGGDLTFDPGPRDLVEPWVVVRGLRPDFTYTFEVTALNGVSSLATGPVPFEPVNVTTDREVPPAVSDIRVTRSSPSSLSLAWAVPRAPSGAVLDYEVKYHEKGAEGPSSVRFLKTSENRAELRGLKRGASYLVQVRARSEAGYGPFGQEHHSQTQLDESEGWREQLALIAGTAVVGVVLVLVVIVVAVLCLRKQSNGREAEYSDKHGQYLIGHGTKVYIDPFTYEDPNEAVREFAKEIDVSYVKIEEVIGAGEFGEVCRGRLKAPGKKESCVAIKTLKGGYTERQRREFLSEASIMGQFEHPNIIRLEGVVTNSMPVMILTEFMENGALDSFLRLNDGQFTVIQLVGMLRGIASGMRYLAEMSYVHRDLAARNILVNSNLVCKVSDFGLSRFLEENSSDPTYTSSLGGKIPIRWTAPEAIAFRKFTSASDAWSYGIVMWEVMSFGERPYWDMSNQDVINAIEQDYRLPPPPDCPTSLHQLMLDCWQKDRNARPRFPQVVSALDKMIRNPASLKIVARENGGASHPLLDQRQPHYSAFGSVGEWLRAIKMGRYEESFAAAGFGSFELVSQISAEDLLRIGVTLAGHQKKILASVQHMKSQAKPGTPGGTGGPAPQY
Description: Inhibition of EphB4 (unknown origin) transfected in CHO cells using [gamma-33P]ATP by radiometric assay

[3] = Cytotoxicity against human LXFA 983L cells after 4 days by propidium iodide staining; conditions: 96 h
DU-145 = test: Cytotoxicity against human PRXF DU145 cells after 4 days by propidium iodide staining; conditions: DU-145, 96 h
[4] = Permeability from basolateral to apical side in human Caco2 cells assessed as compound recovery after 2 hrs by LC-MS/MS analysis; type: ADME, cell-based; conditions: Caco-2, read-out: permeability
[5] = target: Ephrin type-A receptor 2 (Homo sapiens) (UniProt P29317); test: Inhibition of human Eph-A2 using [gamma-33P]ATP assessed as residual activity at 3 uM after 30 mins by radiometric assay
Chain of Ephrin type-A receptor 2 (Homo sapiens) (P29317 whole entry): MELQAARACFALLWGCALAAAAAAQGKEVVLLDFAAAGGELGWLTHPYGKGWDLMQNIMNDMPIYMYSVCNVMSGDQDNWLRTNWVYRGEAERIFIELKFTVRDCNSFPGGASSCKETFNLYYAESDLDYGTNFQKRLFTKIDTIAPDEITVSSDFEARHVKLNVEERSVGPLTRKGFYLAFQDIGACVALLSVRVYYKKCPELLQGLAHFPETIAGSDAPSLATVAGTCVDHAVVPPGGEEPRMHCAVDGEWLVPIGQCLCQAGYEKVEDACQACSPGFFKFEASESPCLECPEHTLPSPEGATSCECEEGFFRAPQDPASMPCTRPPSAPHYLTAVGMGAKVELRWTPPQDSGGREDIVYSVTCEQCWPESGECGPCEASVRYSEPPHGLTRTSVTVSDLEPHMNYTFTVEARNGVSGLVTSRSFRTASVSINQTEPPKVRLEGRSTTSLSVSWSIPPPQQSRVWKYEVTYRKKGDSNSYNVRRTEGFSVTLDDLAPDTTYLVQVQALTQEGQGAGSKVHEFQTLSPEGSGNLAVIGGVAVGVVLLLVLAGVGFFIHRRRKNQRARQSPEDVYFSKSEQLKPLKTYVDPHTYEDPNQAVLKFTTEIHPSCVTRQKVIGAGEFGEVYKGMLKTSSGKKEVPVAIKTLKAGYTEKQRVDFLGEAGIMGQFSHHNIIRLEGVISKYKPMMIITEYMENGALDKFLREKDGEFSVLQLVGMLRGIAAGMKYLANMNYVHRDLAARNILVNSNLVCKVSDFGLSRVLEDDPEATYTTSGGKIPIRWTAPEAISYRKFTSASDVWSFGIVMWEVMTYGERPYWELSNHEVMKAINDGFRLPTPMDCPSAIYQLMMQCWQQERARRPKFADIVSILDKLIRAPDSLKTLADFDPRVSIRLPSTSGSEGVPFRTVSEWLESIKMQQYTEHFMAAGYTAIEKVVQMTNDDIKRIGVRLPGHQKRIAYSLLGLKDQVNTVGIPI

CCCCn1c(-c2ccccc2C)cn2c3c(=O)[nH]c(=O)n(C)c3nc12
Activity [1]: 10%
IC50 [2]: 4.61 µM
IC50 (Ephrin type-B receptor 4): 0.082 µM
IC50 [3]: 5.45 µM
IC50 (DU-145): 11.2 µM
recovery at 2 h [4]: 89%
Activity [5]: 6%
